Assay results from ChEMBL document CHEMBL3991601, “The target landscape of clinical kinase drugs” (Science, 2017).
Active and inactive are the calls of the source. For most assays here, no stated cut-off is given here; in the data, actives have a measured Kd and inactives only a lower limit.

Experiments:
[1] = target: Cyclin-dependent kinase 12 (Homo sapiens, UniProt Q9NYV4)
[2] = target: Tyrosine-protein kinase HCK (Homo sapiens, UniProt P08631)
[3] = target: TRAF2 and NCK-interacting protein kinase (Homo sapiens, UniProt Q9UKE5)
[4] = target: Maternal embryonic leucine zipper kinase (Homo sapiens, UniProt Q14680)
[5] = target: Tyrosine-protein kinase SYK (Homo sapiens, UniProt P43405)
[6] = target: Ribosomal protein S6 kinase alpha-6 (Homo sapiens, UniProt Q9UK32)
[7] = target: T1, Cyclin-G-associated kinase (Homo sapiens, UniProt O14976)
T1 sequence (O14976 whole entry): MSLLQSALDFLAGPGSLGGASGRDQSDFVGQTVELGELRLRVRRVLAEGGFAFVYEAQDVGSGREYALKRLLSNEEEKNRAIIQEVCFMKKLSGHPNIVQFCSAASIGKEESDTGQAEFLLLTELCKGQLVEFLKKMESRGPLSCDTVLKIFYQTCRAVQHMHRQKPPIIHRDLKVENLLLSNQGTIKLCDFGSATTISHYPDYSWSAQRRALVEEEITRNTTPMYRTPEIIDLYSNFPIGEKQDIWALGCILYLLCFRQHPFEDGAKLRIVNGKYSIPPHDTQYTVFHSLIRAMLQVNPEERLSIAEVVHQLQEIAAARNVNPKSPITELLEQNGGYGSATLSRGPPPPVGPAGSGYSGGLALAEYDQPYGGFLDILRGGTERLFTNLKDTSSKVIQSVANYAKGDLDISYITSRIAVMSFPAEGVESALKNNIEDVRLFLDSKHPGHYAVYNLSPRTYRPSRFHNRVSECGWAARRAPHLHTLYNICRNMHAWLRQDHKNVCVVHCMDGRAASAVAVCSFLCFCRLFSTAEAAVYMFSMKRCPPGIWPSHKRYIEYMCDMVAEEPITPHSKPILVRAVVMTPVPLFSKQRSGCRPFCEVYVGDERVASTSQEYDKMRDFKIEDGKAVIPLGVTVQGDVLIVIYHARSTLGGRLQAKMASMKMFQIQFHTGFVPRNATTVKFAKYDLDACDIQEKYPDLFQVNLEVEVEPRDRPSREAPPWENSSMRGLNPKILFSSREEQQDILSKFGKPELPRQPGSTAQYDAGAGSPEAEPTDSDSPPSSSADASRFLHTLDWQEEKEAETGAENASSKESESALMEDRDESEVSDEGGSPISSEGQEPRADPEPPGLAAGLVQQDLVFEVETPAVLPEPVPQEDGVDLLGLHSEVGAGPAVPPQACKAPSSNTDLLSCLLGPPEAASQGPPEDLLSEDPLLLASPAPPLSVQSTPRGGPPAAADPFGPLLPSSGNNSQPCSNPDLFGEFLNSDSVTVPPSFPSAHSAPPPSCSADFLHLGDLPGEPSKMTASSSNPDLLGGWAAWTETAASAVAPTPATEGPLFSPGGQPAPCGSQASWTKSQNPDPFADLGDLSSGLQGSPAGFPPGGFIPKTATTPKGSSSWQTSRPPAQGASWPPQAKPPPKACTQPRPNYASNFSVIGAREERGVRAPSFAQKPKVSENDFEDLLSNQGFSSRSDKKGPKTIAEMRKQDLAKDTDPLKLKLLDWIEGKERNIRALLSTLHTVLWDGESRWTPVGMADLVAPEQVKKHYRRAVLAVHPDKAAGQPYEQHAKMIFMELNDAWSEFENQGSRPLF

[8] = target: NADH dehydrogenase [ubiquinone] 1 alpha subcomplex subunit 13 (Homo sapiens, UniProt Q9P0J0)
[9] = target: RAC-gamma serine/threonine-protein kinase (Homo sapiens, UniProt Q9Y243)
[10] = target: Casein kinase I isoform gamma-1 (Homo sapiens, UniProt Q9HCP0)
[11] = target: T2, ATP-dependent RNA helicase DDX1 (Homo sapiens, UniProt Q92499)
T2 sequence (Q92499 whole entry): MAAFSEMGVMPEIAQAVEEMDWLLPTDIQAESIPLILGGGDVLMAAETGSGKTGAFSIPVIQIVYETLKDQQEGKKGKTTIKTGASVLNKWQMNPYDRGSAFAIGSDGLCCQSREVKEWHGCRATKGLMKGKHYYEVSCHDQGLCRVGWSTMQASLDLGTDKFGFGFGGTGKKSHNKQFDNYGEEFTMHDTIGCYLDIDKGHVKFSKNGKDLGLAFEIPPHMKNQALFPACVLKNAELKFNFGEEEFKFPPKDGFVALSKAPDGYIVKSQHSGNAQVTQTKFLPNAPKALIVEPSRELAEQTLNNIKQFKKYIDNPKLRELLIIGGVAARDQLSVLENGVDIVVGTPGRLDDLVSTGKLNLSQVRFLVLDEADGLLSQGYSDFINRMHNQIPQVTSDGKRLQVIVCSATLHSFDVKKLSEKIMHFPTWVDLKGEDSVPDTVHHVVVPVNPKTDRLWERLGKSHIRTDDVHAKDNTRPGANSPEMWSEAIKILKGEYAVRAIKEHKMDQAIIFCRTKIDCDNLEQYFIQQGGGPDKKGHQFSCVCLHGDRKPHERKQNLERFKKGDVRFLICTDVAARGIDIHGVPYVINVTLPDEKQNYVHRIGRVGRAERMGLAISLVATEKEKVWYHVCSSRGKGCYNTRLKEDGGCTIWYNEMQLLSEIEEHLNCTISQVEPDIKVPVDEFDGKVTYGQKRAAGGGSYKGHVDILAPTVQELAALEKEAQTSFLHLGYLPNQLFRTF

Sequence of Tyrosine-protein kinase HCK (P08631 whole entry): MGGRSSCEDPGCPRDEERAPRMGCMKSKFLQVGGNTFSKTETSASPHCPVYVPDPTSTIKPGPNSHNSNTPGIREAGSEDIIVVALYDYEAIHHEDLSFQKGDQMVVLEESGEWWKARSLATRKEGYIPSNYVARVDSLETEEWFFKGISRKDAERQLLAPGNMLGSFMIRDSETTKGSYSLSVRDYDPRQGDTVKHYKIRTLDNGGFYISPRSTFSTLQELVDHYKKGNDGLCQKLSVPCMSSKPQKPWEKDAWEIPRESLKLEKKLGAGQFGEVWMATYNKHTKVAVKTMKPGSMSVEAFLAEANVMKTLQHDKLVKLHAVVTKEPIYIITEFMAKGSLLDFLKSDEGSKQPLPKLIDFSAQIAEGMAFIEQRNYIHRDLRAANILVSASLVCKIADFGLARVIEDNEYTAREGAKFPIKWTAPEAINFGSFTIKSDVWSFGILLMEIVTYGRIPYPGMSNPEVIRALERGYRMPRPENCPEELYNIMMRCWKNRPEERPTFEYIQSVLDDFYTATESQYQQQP
Sequence of RAC-gamma serine/threonine-protein kinase (Q9Y243 whole entry, canonical isoform): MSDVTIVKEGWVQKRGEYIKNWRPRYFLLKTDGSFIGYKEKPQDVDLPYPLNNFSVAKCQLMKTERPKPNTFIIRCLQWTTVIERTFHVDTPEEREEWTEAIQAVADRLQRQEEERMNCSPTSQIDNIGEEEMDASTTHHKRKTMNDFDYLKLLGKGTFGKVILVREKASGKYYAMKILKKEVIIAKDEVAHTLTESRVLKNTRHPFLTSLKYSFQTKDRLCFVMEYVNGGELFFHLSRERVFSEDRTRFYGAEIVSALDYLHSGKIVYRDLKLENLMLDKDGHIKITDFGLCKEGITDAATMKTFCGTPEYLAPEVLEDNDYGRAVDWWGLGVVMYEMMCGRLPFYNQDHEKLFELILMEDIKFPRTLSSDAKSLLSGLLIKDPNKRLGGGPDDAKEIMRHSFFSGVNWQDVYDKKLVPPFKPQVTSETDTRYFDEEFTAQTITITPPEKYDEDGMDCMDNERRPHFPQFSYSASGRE
Sequence of Cyclin-dependent kinase 12 (Q9NYV4 whole entry): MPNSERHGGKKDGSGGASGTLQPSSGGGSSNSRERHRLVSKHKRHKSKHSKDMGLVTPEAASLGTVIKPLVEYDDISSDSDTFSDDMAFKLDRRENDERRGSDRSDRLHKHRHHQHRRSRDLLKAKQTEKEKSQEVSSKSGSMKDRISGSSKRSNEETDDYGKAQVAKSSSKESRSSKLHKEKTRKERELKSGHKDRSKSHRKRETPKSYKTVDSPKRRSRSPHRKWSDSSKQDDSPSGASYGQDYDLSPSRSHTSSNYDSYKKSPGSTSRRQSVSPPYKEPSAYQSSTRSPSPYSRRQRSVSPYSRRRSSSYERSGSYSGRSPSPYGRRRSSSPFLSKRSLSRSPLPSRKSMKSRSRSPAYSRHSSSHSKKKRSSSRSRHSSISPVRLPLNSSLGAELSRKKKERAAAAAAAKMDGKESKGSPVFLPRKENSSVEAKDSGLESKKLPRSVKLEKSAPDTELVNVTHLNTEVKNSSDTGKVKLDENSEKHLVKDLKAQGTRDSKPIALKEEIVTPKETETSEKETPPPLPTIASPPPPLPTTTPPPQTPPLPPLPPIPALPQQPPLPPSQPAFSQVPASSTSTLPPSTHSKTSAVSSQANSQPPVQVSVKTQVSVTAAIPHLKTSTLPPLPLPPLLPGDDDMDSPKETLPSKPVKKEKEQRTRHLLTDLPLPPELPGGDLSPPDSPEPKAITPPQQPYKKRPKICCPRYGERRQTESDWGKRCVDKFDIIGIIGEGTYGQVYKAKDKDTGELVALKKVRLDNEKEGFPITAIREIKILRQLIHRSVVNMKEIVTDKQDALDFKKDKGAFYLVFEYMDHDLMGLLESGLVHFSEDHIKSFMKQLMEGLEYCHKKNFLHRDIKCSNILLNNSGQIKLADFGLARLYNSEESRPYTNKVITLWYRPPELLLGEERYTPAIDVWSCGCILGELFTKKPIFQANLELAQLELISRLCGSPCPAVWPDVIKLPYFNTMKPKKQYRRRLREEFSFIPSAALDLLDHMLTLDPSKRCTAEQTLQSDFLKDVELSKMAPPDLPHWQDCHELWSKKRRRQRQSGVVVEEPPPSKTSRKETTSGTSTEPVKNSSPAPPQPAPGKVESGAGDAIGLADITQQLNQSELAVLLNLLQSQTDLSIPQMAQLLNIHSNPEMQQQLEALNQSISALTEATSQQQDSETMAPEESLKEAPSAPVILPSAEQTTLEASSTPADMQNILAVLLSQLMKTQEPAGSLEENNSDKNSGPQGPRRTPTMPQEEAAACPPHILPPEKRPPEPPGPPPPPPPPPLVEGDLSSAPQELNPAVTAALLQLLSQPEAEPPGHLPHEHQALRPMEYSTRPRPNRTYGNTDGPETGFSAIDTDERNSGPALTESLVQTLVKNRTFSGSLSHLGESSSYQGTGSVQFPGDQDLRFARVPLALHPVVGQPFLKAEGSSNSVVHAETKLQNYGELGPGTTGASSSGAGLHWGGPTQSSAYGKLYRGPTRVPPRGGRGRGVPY
Sequence of Maternal embryonic leucine zipper kinase (Q14680 whole entry): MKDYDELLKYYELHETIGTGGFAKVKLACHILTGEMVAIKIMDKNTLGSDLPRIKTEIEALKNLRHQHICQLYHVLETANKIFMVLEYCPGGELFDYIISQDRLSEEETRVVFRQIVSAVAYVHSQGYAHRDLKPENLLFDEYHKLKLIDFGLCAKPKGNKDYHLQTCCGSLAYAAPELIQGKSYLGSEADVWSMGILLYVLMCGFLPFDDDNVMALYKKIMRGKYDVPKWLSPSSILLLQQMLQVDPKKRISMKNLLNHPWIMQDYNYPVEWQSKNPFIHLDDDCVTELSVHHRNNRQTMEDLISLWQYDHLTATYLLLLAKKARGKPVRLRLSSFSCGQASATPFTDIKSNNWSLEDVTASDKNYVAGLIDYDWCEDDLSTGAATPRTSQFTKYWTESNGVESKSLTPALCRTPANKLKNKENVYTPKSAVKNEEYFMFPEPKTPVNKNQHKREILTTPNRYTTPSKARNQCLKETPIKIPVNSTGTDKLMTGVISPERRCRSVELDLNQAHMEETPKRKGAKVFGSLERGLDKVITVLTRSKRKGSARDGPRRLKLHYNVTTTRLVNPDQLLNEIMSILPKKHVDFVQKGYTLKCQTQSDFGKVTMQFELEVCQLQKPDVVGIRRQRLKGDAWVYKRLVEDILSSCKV
Sequence of NADH dehydrogenase [ubiquinone] 1 alpha subcomplex subunit 13 (Q9P0J0 whole entry, one chain of several): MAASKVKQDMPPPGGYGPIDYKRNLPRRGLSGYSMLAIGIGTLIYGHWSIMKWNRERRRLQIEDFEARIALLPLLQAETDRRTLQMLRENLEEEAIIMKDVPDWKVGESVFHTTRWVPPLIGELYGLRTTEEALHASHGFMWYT
Sequence of TRAF2 and NCK-interacting protein kinase (Q9UKE5 whole entry): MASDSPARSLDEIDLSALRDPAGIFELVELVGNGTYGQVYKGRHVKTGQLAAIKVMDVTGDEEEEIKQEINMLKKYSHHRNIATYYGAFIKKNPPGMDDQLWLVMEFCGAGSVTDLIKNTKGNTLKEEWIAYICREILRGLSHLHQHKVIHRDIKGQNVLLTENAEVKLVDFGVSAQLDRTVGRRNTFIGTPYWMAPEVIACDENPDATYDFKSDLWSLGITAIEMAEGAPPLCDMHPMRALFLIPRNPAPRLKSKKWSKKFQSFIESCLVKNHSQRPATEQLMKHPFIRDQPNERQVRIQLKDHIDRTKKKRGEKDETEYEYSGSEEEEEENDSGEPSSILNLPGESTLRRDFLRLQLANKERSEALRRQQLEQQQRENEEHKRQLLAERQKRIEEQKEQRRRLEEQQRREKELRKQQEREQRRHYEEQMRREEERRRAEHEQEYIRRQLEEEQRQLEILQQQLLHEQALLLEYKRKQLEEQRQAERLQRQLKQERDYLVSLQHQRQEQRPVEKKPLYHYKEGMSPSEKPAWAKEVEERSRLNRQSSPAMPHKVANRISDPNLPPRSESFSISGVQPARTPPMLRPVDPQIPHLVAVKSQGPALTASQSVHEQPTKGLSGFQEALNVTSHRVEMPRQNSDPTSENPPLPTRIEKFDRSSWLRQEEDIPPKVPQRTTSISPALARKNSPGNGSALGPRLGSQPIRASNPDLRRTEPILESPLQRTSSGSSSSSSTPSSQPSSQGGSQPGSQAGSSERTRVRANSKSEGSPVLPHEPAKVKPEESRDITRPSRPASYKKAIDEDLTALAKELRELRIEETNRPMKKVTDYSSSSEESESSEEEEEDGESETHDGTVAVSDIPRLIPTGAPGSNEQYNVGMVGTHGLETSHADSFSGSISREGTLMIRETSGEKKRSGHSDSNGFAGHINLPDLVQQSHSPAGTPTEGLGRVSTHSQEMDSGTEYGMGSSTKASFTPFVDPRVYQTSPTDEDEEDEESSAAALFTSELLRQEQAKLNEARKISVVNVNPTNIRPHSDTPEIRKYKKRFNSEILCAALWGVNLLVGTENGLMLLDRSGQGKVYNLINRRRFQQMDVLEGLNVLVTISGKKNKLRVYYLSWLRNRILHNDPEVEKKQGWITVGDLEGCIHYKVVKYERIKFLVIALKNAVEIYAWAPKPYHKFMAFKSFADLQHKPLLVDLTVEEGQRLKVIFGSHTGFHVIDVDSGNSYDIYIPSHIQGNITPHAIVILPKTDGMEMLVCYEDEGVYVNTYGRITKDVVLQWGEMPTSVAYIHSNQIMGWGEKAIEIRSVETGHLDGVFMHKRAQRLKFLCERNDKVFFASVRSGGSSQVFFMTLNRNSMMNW
Sequence of Casein kinase I isoform gamma-1 (Q9HCP0 whole entry, canonical isoform): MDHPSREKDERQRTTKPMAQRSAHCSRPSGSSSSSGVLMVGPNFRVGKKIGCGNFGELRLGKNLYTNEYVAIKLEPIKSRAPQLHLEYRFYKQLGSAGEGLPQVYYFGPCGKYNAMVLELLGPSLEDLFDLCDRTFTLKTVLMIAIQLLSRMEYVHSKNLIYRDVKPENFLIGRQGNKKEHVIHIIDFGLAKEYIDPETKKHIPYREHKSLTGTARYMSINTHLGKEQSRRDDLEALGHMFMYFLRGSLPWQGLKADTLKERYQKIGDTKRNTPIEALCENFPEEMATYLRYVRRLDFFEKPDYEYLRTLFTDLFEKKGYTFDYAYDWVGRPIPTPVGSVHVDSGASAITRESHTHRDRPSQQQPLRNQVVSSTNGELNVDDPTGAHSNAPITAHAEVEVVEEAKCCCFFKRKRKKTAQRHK

Structure (SMILES) | Kd [1] | Kd [2] | Kd [3] | Kd [4] | Kd [5] | Kd [6] | Kd [7] | Kd [8] | Kd [9] | Kd [10] | Kd [11]
O=c1[nH]c([C@@H]2CCCN2)nc2c1oc1ccc(Cl)cc12 | > 30 µM (inactive) | > 30 µM (inactive) | > 30 µM (inactive) | > 30 µM (inactive) | > 30 µM (inactive) | > 30 µM (inactive) | > 30 µM (inactive) | > 30 µM (inactive) | > 30 µM (inactive) | > 30 µM (inactive) | 
Cn1cc(-c2[nH]c3cc(NC(=O)[C@H](N)C4CCCCC4)cc4c3c2C=NNC4=O)cn1 | > 30 µM (inactive) | 0.436 µM (active) | 0.251 µM | 45.7 µM (active) | > 30 µM (inactive) | 2.38 µM (active) | 0.023 µM (active) | > 30 µM (inactive) | > 30 µM (inactive) | > 30 µM (inactive) | > 30 µM (inactive)
CCN1CCN(Cc2ccc(Nc3ncc(F)c(-c4cc(F)c5nc(C)n(C(C)C)c5c4)n3)nc2)CC1 [ABEMACICLIB] | > 30 µM (inactive) | > 30 µM (inactive) | > 30 µM (inactive) | > 30 µM (inactive) | > 30 µM (inactive) | > 30 µM (inactive) | 2.19 µM (active) | > 30 µM (inactive) | > 30 µM (inactive) | > 30 µM (inactive) | > 30 µM (inactive)
Cc1c(NC(=O)OC[C@@H]2COCCN2)cn2ncnc(Nc3ccc4c(cnn4Cc4cccc(F)c4)c3)c12 [AC-480] | > 30 µM (inactive) | > 30 µM (inactive) | > 30 µM (inactive) | > 30 µM (inactive) | > 30 µM (inactive) | > 30 µM (inactive) | > 30 µM (inactive) |  | > 30 µM (inactive) | > 30 µM (inactive) | > 30 µM (inactive)
CCc1cc2c(cc1N1CCC(N3CCOCC3)CC1)C(C)(C)c1[nH]c3cc(C#N)ccc3c1C2=O [ALECTINIB] | > 30 µM (inactive) | > 30 µM (inactive) | > 30 µM (inactive) | > 30 µM (inactive) | > 30 µM (inactive) | > 30 µM (inactive) | 0.259 µM (active) | > 30 µM (inactive) | > 30 µM (inactive) | > 30 µM (inactive) | > 30 µM (inactive)
COc1ccc2c(OCc3nnc4ccc(-c5ccccc5)nn34)ccnc2c1 [AMG-208] | > 30 µM (inactive) | > 30 µM (inactive) | > 30 µM (inactive) | > 30 µM (inactive) | > 30 µM (inactive) | > 30 µM (inactive) | > 30 µM (inactive) | > 30 µM (inactive) | > 30 µM (inactive) | > 30 µM (inactive) | > 30 µM (inactive)
Cc1cc(Nc2nc(N[C@@H](C)c3ncc(F)cn3)ncc2Cl)n[nH]1 [AZD-1480] | > 30 µM (inactive) | > 30 µM (inactive) | > 30 µM (inactive) | > 30 µM (inactive) | > 30 µM (inactive) | > 30 µM (inactive) | > 30 µM (inactive) | > 30 µM (inactive) | > 30 µM (inactive) | > 30 µM (inactive) | > 30 µM (inactive)
COc1cccc(Nc2ncnn3ccc(CN4CC[C@@H](N)[C@H](O)C4)c23)c1 [BMS-690514] | > 30 µM (inactive) | 0.712 µM (active) | > 30 µM (inactive) | > 30 µM (inactive) | > 30 µM (inactive) | > 30 µM (inactive) | 0.0003 µM (active) |  | > 30 µM (inactive) | > 30 µM (inactive) | > 30 µM (inactive)
CCOc1ccn(-c2ccc(F)cc2)c(=O)c1C(=O)Nc1ccc(Oc2ccnc(N)c2Cl)c(F)c1 [BMS-777607] | > 30 µM (inactive) | > 30 µM (inactive) | > 30 µM (inactive) | > 30 µM (inactive) | > 30 µM (inactive) | > 30 µM (inactive) | > 30 µM (inactive) |  | > 30 µM (inactive) | > 30 µM (inactive) | > 30 µM (inactive)
COc1cc2nccc(Oc3ccc(NC(=O)C4(C(=O)Nc5ccc(F)cc5)CC4)cc3)c2cc1OC [CABOZANTINIB] | > 30 µM (inactive) | 1.1 µM (active) | > 30 µM (inactive) | > 30 µM (inactive) | > 30 µM (inactive) | > 30 µM (inactive) | > 30 µM (inactive) | > 30 µM (inactive) | > 30 µM (inactive) | > 30 µM (inactive) | > 30 µM (inactive)
CCc1nc(C(N)=O)c(Nc2ccc(N3CCC(N4CCN(C)CC4)CC3)c(OC)c2)nc1NC1CCOCC1 [GILTERITINIB] | > 30 µM (inactive) | 1.59 µM (active) | > 30 µM (inactive) | > 30 µM (inactive) | 4.04 µM (active) | > 30 µM (inactive) | 0.009 µM (active) | > 30 µM (inactive) | > 30 µM (inactive) | > 30 µM (inactive) | 
O=C(O)c1ccc2c(c1)nc(Nc1cccc(Cl)c1)c1ccncc12 [SILMITASERTIB] | > 30 µM (inactive) | > 30 µM (inactive) | > 30 µM (inactive) | > 30 µM (inactive) | > 30 µM (inactive) | 3.42 µM (active) | 5.16 µM (active) | > 30 µM (inactive) | > 30 µM (inactive) | > 30 µM (inactive) | 
C=CCN(/C=C1/C(=O)O[C@H](COC)[C@@]2(C)C1=C(O)C(=O)C1=C2[C@H](OC(C)=O)C[C@]2(C)C(=O)CC[C@@H]12)CC=C [SONOLISIB] | > 30 µM (inactive) | > 30 µM (inactive) | > 30 µM (inactive) | > 30 µM (inactive) | > 30 µM (inactive) | > 30 µM (inactive) | > 30 µM (inactive) | > 30 µM (inactive) | > 30 µM (inactive) | > 30 µM (inactive) | 
CN1CCN(c2nc(C3=C(c4c[nH]c5ccccc45)C(=O)NC3=O)c3ccccc3n2)CC1 [SOTRASTAURIN] | > 30 µM (inactive) | > 30 µM (inactive) | 0.038 µM | > 30 µM (inactive) | > 30 µM (inactive) |  | > 30 µM (inactive) | > 30 µM (inactive) | > 30 µM (inactive) | > 30 µM (inactive) | > 30 µM (inactive)
Cn1c(=O)c(F)c(Nc2ccc(I)cc2F)c2c(=O)n(C[C@@H](O)CO)cnc21 [TAK-733] | > 30 µM (inactive) | > 30 µM (inactive) | > 30 µM (inactive) | > 30 µM (inactive) | > 30 µM (inactive) | > 30 µM (inactive) | > 30 µM (inactive) |  | > 30 µM (inactive) | > 30 µM (inactive) | > 30 µM (inactive)
